≈ marks a conversion by molar mass, not a printed value. Calls of active or inactive are those of the source. The rule behind the calls is not given here.
Experiments:
Acinetobacter baumannii [1] = test: Antibacterial activity against wild type Acinetobacter baumannii ATCC 17978 assessed as resistant development at sub-MIC measured after 5 days of passaging by microbroth dilution method relative to control; type: functional
Escherichia coli = test: Bactericidal activity against Escherichia coli ATCC […] at 50.4 uM in LB media after 24 hrs by time-kill assay; type: functional, organism-based
Staphylococcus aureus = test: Antibacterial activity against methicillin-resistant Staphylococcus aureus ATCC 33592; type: functional
Acinetobacter baumannii [2] = test: Antibacterial activity against wild type Acinetobacter baumannii ATCC 17978 assessed as resistant development at sub-MIC measured after 3 days of passaging by microbroth dilution method relative to control; type: functional
Acinetobacter baumannii [3] = test: Antibacterial activity against wild type Acinetobacter baumannii ATCC 17978 by checkerboard assay; type: functional
Acinetobacter baumannii [4] = test: Bacteriostatic activity against Acinetobacter baumannii ATCC 17978 at 50.4 uM in LB media after 24 hrs by time-kill assay; type: functional, organism-based
Klebsiella pneumoniae = test: Bacteriostatic activity against Klebsiella pneumoniae 116381 at 50.4 uM in LB media after 24 hrs by time-kill assay; type: functional
Pseudomonas aeruginosa [5] = test: Bacteriostatic activity against Pseudomonas aeruginosa PAO1 at 50.4 uM in LB media after 24 hrs by time-kill assay; type: functional, organism-based
[6] = Toxicity in Galleria mellonella larvae MDR Acinetobacter baumannii isolate assessed as mortality at 100 mg/kg measured after 24 hrs relative to control; type: ADME, organism-based; conditions: in vivo, read-out: Activity
Acinetobacter baumannii [7] = test: Antibacterial activity against novobiocin-resistant Acinetobacter baumannii ATCC 17978 mutant generated from seven serial passages by checkerboard assay; type: functional
Acinetobacter baumannii [8] = test: Antibacterial activity against novobiocin and test compound-resistant Acinetobacter baumannii ATCC 17978 mutant generated from seven serial passages in presence of novobiocin by checkerboard assay; type: functional
Enterococcus faecium = test: Antibacterial activity against Enterococcus faecium ATCC 27270; type: functional
Acinetobacter baumannii [9] = test: Antibacterial activity against colistin-resistant Acinetobacter baumannii ATCC 17978 mutant generated from seven serial passages by checkerboard assay; type: functional
[10] = tested on: Staphylococcus epidermidis; test: Antibacterial activity against methicillin-resistant Staphylococcus epidermidis 61589; type: functional
Pseudomonas aeruginosa [11] = test: Induction of outer membrane permeabilization in Pseudomonas aeruginosa PAO1 assessed as increase in accumulation of NPN by measuring fluorescence intensity at 14 ug/ml measured immediately by NPN dye uptake assay; type: organism-based
Acinetobacter baumannii [12] = test: Antibacterial activity against wild type Acinetobacter baumannii ATCC 17978 assessed as resistant development at sub-MIC measured after 7 days of passaging by microbroth dilution method relative to control; type: functional

| SMILES | fold change (FC) (Acinetobacter baumannii [1]) | Activity (Escherichia coli) | MIC (Staphylococcus aureus) | fold change (FC) (Acinetobacter baumannii [2]) | MIC (Acinetobacter baumannii [3]) | Activity (Acinetobacter baumannii [4]) | Activity (Klebsiella pneumoniae) | Activity (Pseudomonas aeruginosa [5]) | mortality at 24 h [6] | MIC (Acinetobacter baumannii [7]) | MIC (Acinetobacter baumannii [8]) | MIC (Enterococcus faecium) | MIC (Acinetobacter baumannii [9]) | MIC [10] | Activity (Pseudomonas aeruginosa [11]) | fold change (FC) (Acinetobacter baumannii [12]) |
| --- | --- | --- | --- | --- | --- | --- | --- | --- | --- | --- | --- | --- | --- | --- | --- | --- |
| CO[C@@H]1[C@@H](OC(N)=O)[C@@H](O)[C@H](Oc2ccc3c(O)c(NC(=O)c4ccc(O)c(CC=C(C)C)c4)c(=O)oc3c2C)OC1(C)C [NOVOBIOCIN] | 256 | Active | 0.125 µg/mL (≈ 0.204 µM) | 64 | 16 µg/mL | Active | -1.87 CFU/ml | Active | 100% | 2050 µg/mL | 128 µg/mL | 2 µg/mL (≈ 3.26 µM) | < 0.031 µg/mL | 0.0625 µg/mL (≈ 0.102 µM) | – | – |
| NC[C@H]1O[C@H](O[C@H]2[C@H](O)[C@@H](O[C@H]3O[C@H](CO)[C@@H](O)[C@H](N)[C@H]3O)[C@H](N)C[C@@H]2N)[C@H](N)C[C@@H]1O [TOBRAMYCIN] | – | – | – | – | 1 µg/mL | – | – | – | – | 1 µg/mL | 1 µg/mL | – | 0.25 µg/mL | – | inactive | 512 |

— ChEMBL document CHEMBL4376820, “Homodimeric Tobramycin Adjuvant Repurposes Novobiocin as an Effective Antibacterial Agent against Gram-Negative Bacteria” (J Med Chem, 2019)
